In ChEMBL document CHEMBL6083212, “The synthesis and bioactivities of ROCK2 inhibitors with 1,2-dithiolan-3-yl motif” (RSC Med Chem, 2024):
Active and inactive are the calls of the source. No cut-off for these calls is given here.

Tests used:
[1] = system: BV-2; assay: Antiinflammatory activity in LPS-induced mouse BV-2 cells assessed as inhibition of TNF-alpha production at […] incubated for 24 hrs by ELISA analysis; format: functional; parameters: dose or concentration left out as unconfirmed
[2] = system: BV-2; assay: Antiinflammatory activity in LPS-induced mouse BV-2 cells assessed as inhibition of IL-6 production at […] incubated for 24 hrs by ELISA analysis; format: functional; parameters: dose or concentration left out as unconfirmed
[3] = Antioxidant activity assessed as DPPH radical scavenging activity at 1 mM incubated for 30 mins by absorbance based analysis; format: functional
[4] = Cytotoxicity against mouse BV-2 cells by MTT assay; format: toxicity, cell-based; conditions: read-out: TC50 (the source's name)
[5] = Acute toxicity in C57BL/6 mouse assessed as change in organ index at 50 mg/kg, iv measured for 14 days; format: organism-based; conditions: in vivo, 336 h, time 14 day
[6] = Oral bioavailability in Sprague-Dawley rat at 10 mg/kg measured upto 24 hrs by LC-MS analysis; format: ADME, organism-based; conditions: in vivo
[7] = Acute toxicity in C57BL/6 mouse assessed as change in body weight at 50 mg/kg, iv measured for 14 days; format: organism-based; conditions: in vivo, 336 h, time 14 day
[8] = Apparent clearance during terminal phase in Sprague-Dawley rat at 10 mg/kg, iv measured upto 24 hrs by LC-MS analysis; format: ADME, organism-based; conditions: in vivo
[9] = system: Mus musculus; assay: Anti-inflammatory activity in CFA-induced acute arthritis C57BL/6 mouse model assessed as effect on foot swelling at 5 to 10 mg/kg, iv measured for 12 hrs; format: functional, organism-based; conditions: dose 5-10 mg/kg
[10] = Cmax in Sprague-Dawley rat at 10 mg/kg, iv measured upto 24 hrs by LC-MS analysis; format: ADME, organism-based; conditions: in vivo
[11] = AUC (0 to t) in Sprague-Dawley rat at 10 mg/kg, iv measured upto 24 hrs by LC-MS analysis; format: ADME, organism-based; conditions: in vivo
[12] = Acute toxicity in C57BL/6 mouse assessed as change in mental state at 50 mg/kg, iv measured for 14 days; format: organism-based; conditions: in vivo, 336 h, time 14 day
[13] = Tmax in Sprague-Dawley rat at 10 mg/kg, iv measured upto 24 hrs by LC-MS analysis; format: ADME, organism-based; conditions: in vivo
[14] = Cmax in Sprague-Dawley rat at 10 mg/kg, ip measured upto 24 hrs by LC-MS analysis; format: ADME, organism-based; conditions: in vivo
[15] = Tmax in Sprague-Dawley rat at 10 mg/kg, ip measured upto 24 hrs by LC-MS analysis; format: ADME, organism-based; conditions: in vivo
[16] = AUC (0 to t) in Sprague-Dawley rat at 10 mg/kg, ip measured upto 24 hrs by LC-MS analysis; format: ADME, organism-based; conditions: in vivo
[17] = Apparent volume of distribution during terminal phase in Sprague-Dawley rat at 10 mg/kg, ip measured upto 24 hrs by LC-MS analysis; format: ADME, organism-based; conditions: in vivo, read-out: Vz/F
[18] = Apparent volume of distribution during terminal phase in Sprague-Dawley rat at 10 mg/kg, iv measured upto 24 hrs by LC-MS analysis; format: ADME, organism-based; conditions: in vivo
[19] = AUC (0 to infinity) in Sprague-Dawley rat at 10 mg/kg, iv measured upto 24 hrs by LC-MS analysis; format: ADME, organism-based; conditions: in vivo
[20] = AUC (0 to infinity) in Sprague-Dawley rat at 10 mg/kg, ip measured upto 24 hrs by LC-MS analysis; format: ADME, organism-based; conditions: in vivo
[21] = Apparent clearance during terminal phase in Sprague-Dawley rat at 10 mg/kg, ip measured upto 24 hrs by LC-MS analysis; format: ADME, organism-based; conditions: in vivo, read-out: CLz/F (converted)
[22] = Drug metabolism in rat plasma assessed as 5-(1,1-dioxodithiolan-3-yl)pentyl 4-(5-isoquinolylsulfonyl)-1,4-diazepane-1-carboxylate metabolite formation at 10 mg/kg, iv; format: ADME, organism-based; conditions: in vivo
[23] = Drug metabolism in rat plasma assessed as 5-(1,2-dioxodithiolan-3-yl)pentyl 4-(5-isoquinolylsulfonyl)-1,4-diazepane-1-carboxylate metabolite formation at 10 mg/kg, iv; format: ADME, organism-based; conditions: in vivo
[24] = Drug metabolism in rat plasma assessed as 5-(1-oxodithiolan-3-yl)pentyl 4-(5-isoquinolylsulfonyl)-1,4-diazepane-1-carboxylate metabolite formation at 10 mg/kg, iv; format: ADME, organism-based; conditions: in vivo

SMILES	inhibition [1]	inhibition [2]	Activity [3] [%]	CC50 [4] [µM]	other results
O=S(=O)(c1cccc2cnccc12)N1CCCNCC1 [FASUDIL]	30.1%	82.6%	99	–	–
O=S(=O)(c1cccc2cnccc12)N1CCN(C(c2ccc(F)cc2)c2ccc(F)cc2)CC1	inactive	inactive	23.4	> 20	–
COc1cc(/C=C/C(=O)N2CCCN(S(=O)(=O)c3cccc4cnccc34)CC2)ccc1OCCCO[N+](=O)[O-]	30.9%	6.42%	19.1	> 100	–
COc1cc(/C=C/C(=O)N2CCCN(S(=O)(=O)c3cccc4cnccc34)CC2)ccc1OCCCCO[N+](=O)[O-]	57.5%	36.3%	20.7	> 100	–
COc1cc(/C=C/C(=O)N2CCCN(S(=O)(=O)c3cccc4cnccc34)CC2)ccc1OC(C)=O	inactive	inactive	28.7	> 100	–
COc1cc(/C=C/C(=O)N2CCCN(S(=O)(=O)c3cccc4cnccc34)CC2)ccc1OCCCCCCO[N+](=O)[O-]	53.8%	56.1%	24.3	> 100	–
COc1cc(/C=C/C(=O)N2CCCN(S(=O)(=O)c3cccc4cnccc34)CC2)cc(OC)c1OC(C)=O	45.9%	35%	22.7	> 100	–
O=C(CCCCC1CCSS1)N1CCN(C(c2ccc(F)cc2)c2ccc(F)cc2)CC1 (stereo unspecified)	70.7%	53.8%	92	> 100	Activity [5]: Non-toxic; bioavailability [6]: 48.5%; Activity [7]: Non-toxic; CLz/F [8]: 48.3 mL/min/kg; Activity [9]: Active; Cmax [10]: 20000 ng/mL; AUC(0-t) at 24 h [11]: 3350 ng·h/mL; Activity [12]: Non-toxic; Tmax [13]: 4.98 min; Cmax [14]: 9950 ng/mL; Tmax [15]: 4.98 min; AUC(0-t) at 24 h [16]: 1630 ng·h/mL; Vd/F [17]: 6.1 L/kg; Vz/F [18]: 0.7 L/kg; AUC(0-inf) [19]: 3360 ng·h/mL; AUC(0-inf) [20]: 1660 ng·h/mL; CL/F [21]: 102 mL/min/kg
O=S(=O)(c1cccc2cnccc12)N1CCCN(C(c2ccc(F)cc2)c2ccc(F)cc2)CC1	inactive	inactive	22.7	62	–
COc1cc(/C=C/C(=O)N2CCCN(S(=O)(=O)c3cccc4cnccc34)CC2)ccc1OCCCCCO[N+](=O)[O-]	34.9%	48.5%	25.3	> 100	–
O=C(OCCCCCC1CCSS1)N1CCCN(S(=O)(=O)c2cccc3cnccc23)CC1 (stereo unspecified)	53.9%	86.7%	91.4	> 100	Activity [5]: Non-toxic; Activity [7]: Non-toxic; CLz/F [8]: 93.3 mL/min/kg; Drug metabolism [22]: metabolite_detected; Cmax [10]: 12200 ng/mL; AUC(0-t) at 24 h [11]: 1940 ng·h/mL; Activity [12]: Non-toxic; Tmax [13]: 12 min; Drug metabolism [23]: metabolite_detected; Vz/F [18]: 1.3 L/kg; AUC(0-inf) [19]: 1950 ng·h/mL; Drug metabolism [24]: metabolite_detected
CC1(C)C=Cc2cc(/C=C/C(=O)N3CCN(S(=O)(=O)c4cccc5cnccc45)CC3)ccc2O1	39.2%	inactive	25.4	> 100	–
O=S(=O)(c1cccc2cnccc12)N1CCN(C(c2ccccc2)c2ccccc2)CC1	25.8%	inactive	26.5	> 20	–
COc1cc(/C=C/C(=O)OCCCCCC2CCSS2)ccc1OC(C)=O (stereo unspecified)	inactive	inactive	26.1	> 100	–
O=C(CCCCC1CCSS1)N1CCCN(S(=O)(=O)c2cccc3c(O)nccc23)CC1 (stereo unspecified)	inactive	inactive	24.4	> 100	–
O=S(=O)(c1cccc2cnccc12)N1CCCN(C(c2ccccc2)c2ccccc2)CC1	inactive	inactive	22.4	> 100	–
O=C(CCCCC1CCSS1)N1CCN(C(c2ccccc2)c2ccccc2)CC1 (stereo unspecified)	41%	49.6%	50.5	63	–
CC(=O)Oc1ccccc1C(=O)OCCCCCC1CCSS1 (stereo unspecified)	51.3%	27.8%	28.5	9.19	–
CC1(C)C=Cc2cc(C(=O)N3CCCN(S(=O)(=O)c4cccc5cnccc45)CC3)ccc2O1	31.5%	inactive	48.7	> 100	–
COc1cc(/C=C/C(=O)N2CCCN(S(=O)(=O)c3cccc4cnccc34)CC2)ccc1OCCO[N+](=O)[O-]	45.8%	2.78%	23.9	> 100	–
CC(=O)Oc1ccc(/C=C/C(=O)N2CCCN(S(=O)(=O)c3cccc4cnccc34)CC2)cc1OC(C)=O	17.8%	22.6%	82.4	44.2	–
COc1cc(/C=C/C(=O)N2CCCN(S(=O)(=O)c3cccc4cnccc34)CC2)ccc1O	0.08%	inactive	93	> 100	–
CC(=O)Oc1ccc(/C=C/C(=O)N2CCCN(S(=O)(=O)c3cccc4cnccc34)CC2)cc1	49.5%	26.3%	29.2	> 100	–
COc1cc(/C=C/C(=O)N2CCCN(S(=O)(=O)c3cccc4cnccc34)CC2)cc(OC)c1O	34.5%	0.07%	90.9	> 100	–
O=C(CCCCC1CCSS1)N1CCN(S(=O)(=O)c2cccc3cnccc23)CC1 (stereo unspecified)	9.02%	inactive	51.2	> 100	–
CC1(C)C=Cc2cc(/C=C/C(=O)N3CCCN(S(=O)(=O)c4cccc5cnccc45)CC3)ccc2O1	38.5%	inactive	33.8	64.4	–
COc1cc(/C=C/C(=O)N2CCCN(S(=O)(=O)c3cccc4c(O)nccc34)CC2)ccc1OC(C)=O	22.6%	25.9%	48.7	> 20	–
